In the supplement of paper PMC12533247:
± gives the standard deviation of the averaged measurements.

What was measured:
[1] = tested on: HSV-1 K26-GFP infected primary human skin cells; experiment: % change of HSV-1 GFP signal vs untreated infected cells; higher = less antiviral inhibition
Method: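 2D primary donor-derived keratinocytes (read at 20 hpi) and donor-matched dermal fibroblasts (read at 48 hpi) infected with GFP-HSV-1 K26 at MOI 1 and treated 1 h later with compound dilutions. IncuCyte GFP integrated intensity is normalised by subtracting mock-infected wells and dividing by untreated infected wells, shown as % change (-100 = full inhibition).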

[2] = tested on: HSV-1 K26-GFP infected 3D skin equivalent; experiment: % activity on HSV-1 GFP signal (0 = infected DMSO control, -100 = uninfected control); higher = higher signal (negative = inhibition / toxicity); conditions: time (h post infection): 48
Method: (§1)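 Triplicate dose-response (0.04 to 10 uM) of 11 top compounds in 3D bioprinted skin equivalents (submerged and ALI models) infected with GFP-HSV-1 K26 at MOI 0.1 and fixed at 48 hpi. GFP (virus) and tdTomato (fibroblast viability) signals are normalised to per-plate controls.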

primary keratinocytes = experiment: % change in live cells vs DMSO control; higher = less cytotoxic; conditions: time (h post treatment): 20
Method: (§2)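 Cytotoxicity in uninfected 2D primary donor keratinocytes (20 h post treatment) and fibroblasts (48 h post treatment), measured with NucSpot live/dead dyes on IncuCyte. Live cells are normalised to the 0.2% DMSO control and shown as % change. Three biological replicates for each of donors 3, 4 and 5.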

[3] = tested on: primary dermal fibroblasts; experiment: as above; conditions: time (h post treatment): 48
Method: as §2

[4] = tested on: HSV-1 K26-GFP infected 3D skin equivalent; experiment: % change of tdTomato fibroblast signal relative to infected DMSO control; higher = higher signal (negative = inhibition / toxicity); conditions: time (h post infection): 48
Method: as §1

Cc1cccc(C)c1N(CC(=O)Nc1ccc(-c2ncon2)cc1)C(=O)C1CCS(=O)(=O)CC1 [Amenamevir]
% change of HSV-1 GFP signal [%], [1]
Conditions | 0.001 µM | 0.003 µM | 0.0091 µM | 0.0274 µM | 0.0823 µM | 0.2469 µM | 0.7407 µM | 2.2222 µM | 6.6667 µM | 20 µM
cell type: primary dermal fibroblasts, donor: 5, time (h post infection): 48 | -4.89 ± 1.9 | -8.89 ± 6.9 | -13.3 ± 9.5 | -23.6 ± 18 | -42.3 ± 19 | -59.7 ± 17 | -74.9 ± 10 | -91.3 ± 2.1 | -98.98 ± 0.42 | -99.775 ± 0.029
cell type: primary keratinocytes, donor: 3, time (h post infection): 20 | 13.9 ± 7.1 | 12.5 ± 10 | 4.38 ± 14 | 0.743 ± 7.2 | -11.4 ± 19 | -38.9 ± 22 | -51.9 ± 7.8 | -68 ± 7.9 | -78.6 ± 13 | -83.4 ± 12
cell type: primary keratinocytes, donor: 4, time (h post infection): 20 | -3.16 ± 10 | -0.75 ± 3.6 | -11.8 ± 1.4 | -15.3 ± 5.3 | -42.6 ± 9 | -80.2 ± 16 | -87.1 ± 12 | -93.7 ± 7.1 | -95.2 ± 3.2 | -99.17 ± 0.71
cell type: primary keratinocytes, donor: 5, time (h post infection): 20 | 1.08 ± 1.5 | 2.94 ± 3 | -1.03 ± 1.6 | -12.8 ± 8.2 | -31.3 ± 16 | -49.2 ± 18 | -67.5 ± 19 | -93.4 ± 2.6 | -97.9 ± 2.3 | -99.54 ± 0.58

Conditions | % activity on HSV-1 GFP signal, [2] [%] | % change in live cells, [3] [%] | % change in live cells, primary keratinocytes [%] | % change of tdTomato fibroblast signal, [4] [%]
0.041152 µM, model: ALI | -20.3 ± 12 | – | – | 0.354 ± 5.1
0.041152 µM, model: submerged | 2.22 ± 1.5 | – | – | 12 ± 9.8
0.082305 µM, donor: 3 | – | -6.67 ± 15 | -5 ± 14 | –
0.082305 µM, donor: 4 | – | 5 ± 5.6 | 8.33 ± 8.5 | –
0.082305 µM, donor: 5 | – | 2.33 ± 9.7 | -7.67 ± 9.7 | –
0.123457 µM, model: ALI | -40.4 ± 26 | – | – | -2.14 ± 7.9
0.123457 µM, model: submerged | -17.6 ± 1.1 | – | – | -5.09 ± 11
0.246914 µM, donor: 3 | – | -7 ± 15 | -8.33 ± 0.58 | –
0.246914 µM, donor: 4 | – | 4.67 ± 2.1 | -12.7 ± 12 | –
0.246914 µM, donor: 5 | – | 4.33 ± 16 | -7 ± 13 | –
0.37037 µM, model: ALI | -99.3 ± 4.2 | – | – | -5.49 ± 9.1
0.37037 µM, model: submerged | -61.9 ± 3.6 | – | – | -8.61 ± 15
0.740741 µM, donor: 3 | – | -7.33 ± 16 | -12 ± 1.7 | –
0.740741 µM, donor: 4 | – | 2.67 ± 7.6 | -6 ± 13 | –
0.740741 µM, donor: 5 | – | 3 ± 22 | -5.67 ± 8.1 | –
1.111111 µM, model: ALI | -108 ± 8.2 | – | – | -6.26 ± 2.4
1.111111 µM, model: submerged | -84.6 ± 2.6 | – | – | -5 ± 12
2.22222 µM, donor: 3 | – | -6 ± 16 | -3.33 ± 16 | –
2.22222 µM, donor: 4 | – | 5 ± 14 | -3.33 ± 25 | –
2.22222 µM, donor: 5 | – | 0 ± 23 | -5.33 ± 8.5 | –
3.33333 µM, model: ALI | -107 ± 2.8 | – | – | -5.93 ± 5.3
3.33333 µM, model: submerged | -89.2 ± 4.1 | – | – | 2.99 ± 13
6.66667 µM, donor: 3 | – | -6 ± 16 | 1.67 ± 14 | –
6.66667 µM, donor: 4 | – | 6.67 ± 8.3 | -36.7 ± 24 | –
6.66667 µM, donor: 5 | – | -3 ± 21 | -1.67 ± 13 | –
10 µM, model: ALI | -112 ± 4 | – | – | -8.92 ± 11
10 µM, model: submerged | -85.3 ± 1.2 | – | – | 5.91 ± 9.7
20 µM, donor: 3 | – | -6.33 ± 19 | -32.7 ± 9.1 | –
20 µM, donor: 4 | – | 4.67 ± 15 | -42 ± 34 | –
20 µM, donor: 5 | – | -4.67 ± 20 | 5.67 ± 15 | –
60 µM, donor: 3 | – | -6.33 ± 28 | -70.3 ± 4.9 | –
60 µM, donor: 4 | – | 0 ± 17 | -63.3 ± 21 | –
60 µM, donor: 5 | – | -23.3 ± 5.5 | -5 ± 20 | –
